{
  "source": "patent US11806354B2",
  "about": "(priority 2017, dated 2023)",
  "key": {"[1]": {"details": "human beings, 15 mg intramuscular dose; cited from earlier work"}, "[2]": {"experiment": "Dissolution testing of monolayer meloxicam/rizatriptan tablet in acidic medium (Example 4)", "type": "physicochemical", "details": "0.01 N HCl", "text": "The inclusion complex was the same as the inclusion complex of Example 3."}, "[3]": {"description": "The effect of varying amounts of potassium carbonate (K2CO3) and sodium bicarbonate (NaHCO3) on the pH of acidic media was tested. The acidic media was chosen to simulate gastric conditions. K2CO3 or NaHCO3 was added to 50 mL of a 0.01 N HCl solution (pH 2). The pH of the solution was measured after addition of the K2CO3 or NaHCO3. Deionized water (240 mL) was then added to the mixture and pH was measured again."}, "migraine patients": {"test_system": "migraine patients", "experiment": "Phase 3 placebo- and active-controlled trial, acute treatment of moderate and severe migraine (Example 11)", "type": "in vivo, human", "quoted_text": "Exclusion criteria included cluster headaches or other types of migraines, chronic daily headache (≥15 non-migraine headache days per month), history of significant cardiovascular disease, and uncontrolled hypertension."}, "[4]": {"details": "monolayer tablet of Example 4, 0 min, 75 RPM, 37° C"}, "[5]": {"details": "monolayer tablet of Example 4, 15 min"}, "[6]": {"details": "monolayer tablet of Example 4, 30 min"}, "[7]": {"details": "monolayer tablet of Example 4, 45 min"}, "[8]": {"details": "monolayer tablet of Example 4, 60 min"}, "[9]": {"details": "monolayer tablet of Example 4, 90 min"}, "[10]": {"details": "monolayer tablet of Example 4, 120 min"}},
  "note": "Like-named read-outs stand apart in the source and are kept apart here.",
  "data": [
    {"smiles": "Cc1cnc(NC(=O)C2=C(O)c3ccccc3S(=O)(=O)N2C)s1", "note": "[Meloxicam]", "values": [
      {"measurement": "AUC0-24 of meloxicam", "setting": "[1]", "result": "about 27 μg·hr/mL"},
      {"measurement": "percent dissolved", "setting": "[2]; [4]", "result": 0, "unit": "%"},
      {"measurement": "percent dissolved", "setting": "[2]; [5]", "result": 79, "unit": "%"},
      {"measurement": "percent dissolved", "setting": "[2]; [6]", "result": 92, "unit": "%"},
      {"measurement": "percent dissolved", "setting": "[2]; [7]", "result": 93, "unit": "%"},
      {"measurement": "percent dissolved", "setting": "[2]; [8]", "result": 93, "unit": "%"},
      {"measurement": "percent dissolved", "setting": "[2]; [9]", "result": 93, "unit": "%"},
      {"measurement": "percent dissolved", "setting": "[2]; [10]", "result": 94, "unit": "%"}
    ]},
    {"smiles": "O=C([O-])O.[Na+]", "note": "[NaHCO3, sodium bicarbonate]", "values": [
      {"measurement": "pH", "setting": "[3]; 300 mg added to 50 mL 0.01 N HCl", "result": 5.90},
      {"measurement": "pH", "setting": "[3]; 750 mg added to 50 mL 0.01 N HCl", "result": 8.30},
      {"measurement": "pH", "setting": "[3]; 1000 mg, 0.01 N HCl + 240 mL water", "result": 8.60}
    ]},
    {"smiles": "CN(C)CCc1c[nH]c2ccc(Cn3cncn3)cc12", "note": "[Rizatriptan]", "values": [
      {"measurement": "patients experiencing relapse of pain", "setting": "migraine patients; 48-hour period after dosing", "result": 45.2, "unit": "%"},
      {"measurement": "percentage of patients with sustained pain freedom", "setting": "migraine patients; 2 hours to 48 hours", "result": 8.8, "unit": "%"},
      {"measurement": "probability of experiencing pain relief", "setting": "migraine patients; 24 hours after taking", "result": "approximately 60%"},
      {"measurement": "Any Treatment-Emergent Adverse Event, number of subjects", "setting": "migraine patients; in vivo", "result": 67},
      {"measurement": "Dizziness, % of subjects", "setting": "migraine patients; in vivo", "result": 2.1, "unit": "%"},
      {"measurement": "Dizziness, number of subjects", "setting": "migraine patients; in vivo", "result": 9},
      {"measurement": "Nausea, % of subjects", "setting": "migraine patients; in vivo", "result": 4.8, "unit": "%"},
      {"measurement": "Nausea, number of subjects", "setting": "migraine patients; in vivo", "result": 21},
      {"measurement": "Somnolence, % of subjects", "setting": "migraine patients; in vivo", "result": 2.1, "unit": "%"},
      {"measurement": "Somnolence, number of subjects", "setting": "migraine patients; in vivo", "result": 9},
      {"measurement": "median time to pain relief", "setting": "migraine patients; in vivo", "result": 4, "unit": "h"},
      {"measurement": "percent dissolved", "setting": "[2]; [4]", "result": 0, "unit": "%"},
      {"measurement": "percent dissolved", "setting": "[2]; [5]", "result": 89, "unit": "%"},
      {"measurement": "percent dissolved", "setting": "[2]; [6]", "result": 102, "unit": "%"},
      {"measurement": "percent dissolved", "setting": "[2]; [7]", "result": 103, "unit": "%"},
      {"measurement": "percent dissolved", "setting": "[2]; [8]", "result": 103, "unit": "%"},
      {"measurement": "percent dissolved", "setting": "[2]; [9]", "result": 103, "unit": "%"},
      {"measurement": "percent dissolved", "setting": "[2]; [10]", "result": 103, "unit": "%"}
    ]}
  ]
}
